A word on the melting point: it is the temperature, or range, at which the solid turns liquid.

The compound `O=C(NCC(=O)N(Cc1ccccc1)[C@@H]1c2ccccc2CC[C@H]1Cc1ccccc1)Nc1cccc(C(=O)O)c1` (relative stereo) [Example 1, trans-3-(3-{[Benzyl-(2-benzyl-1,2,3,4-tetrahydro-naphthalen-1-yl)-carbamoyl]-methyl}-ureido)-benzoic acid] returned a melting point greater than 250 °C.

`O=C(NCC(=O)N(Cc1ccccc1)[C@@H]1c2ccccc2CC[C@H]1Cc1ccccc1)Nc1cccc(C(=O)Nc2nnn[nH]2)c1` (relative stereo) [Example 3, trans-3-(3-{[Benzyl-(2-benzyl-1,2,3,4-tetrahydro-naphthalen-1-yl)-carbamoyl]-methyl}-ureido)-N-(1H-tetrazol-5-yl)-benzamide]: the melting point was 155 °C (dec.).

With `O=C(NCC(=O)N(Cc1ccccc1)[C@@H]1c2ccccc2CC[C@H]1Cc1ccccc1)c1cccc(-c2nnn[nH]2)c1` (relative stereo) [Example 4, trans-N-{[Benzyl-(2-benzyl-1,2,3,4-tetrahydro-naphthalen-1-yl)-carbamoyl]-methyl}-3-(1H-tetrazol-5-yl)-benzamide], the melting point was 119 °C (dec.). In turn, `COc1ccccc1CN(C(=O)CNC(=O)Nc1cccc(C(=O)O)c1)[C@@H]1c2ccccc2CC[C@H]1Cc1ccccc1` (relative stereo) [Example 11, trans-3-(3-{[(2-Benzyl-1,2,3,4-tetrahydro-naphthalen-1-yl)-(2-methoxy-benzyl)-carbamoyl]-methyl}-ureido)-benzoic acid] returned a melting point of 117 °C. `O=C(NCC(=O)N(Cc1cccs1)[C@@H]1c2ccccc2CC[C@H]1Cc1ccccc1)Nc1cccc(C(=O)O)c1` (relative stereo) [Example 13, trans-3-(3-{[(2-Benzyl-1,2,3,4-tetrahydro-naphthalen-1-yl)-thiophen-2-ylmethyl-carbamoyl]-methyl}-ureido)-benzoic acid] showed a melting point of 196 to 198 °C.

The compound `O=C(NCC(=O)N(Cc1ccccc1)[C@@H]1CCCC[C@H]1Cc1ccccc1)Nc1cccc(C(=O)O)c1` (relative stereo) [Example 14, trans-3-(3-{[Benzyl-(2-benzyl-cyclohexyl)-carbamoyl]-methyl)-ureido)-benzoic Acid] came in with a melting point of 160 to 162 °C. Next, `CCN(C(=O)CNC(=O)Nc1cccc(C(=O)O)c1)[C@@H]1c2ccccc2CC[C@H]1Cc1ccccc1` (relative stereo) [Example 16, trans-3-(3-{[(2-Benzyl-1,2,3,4-tetrahydro-naphthalen-1yl)-ethyl-carbamoyl]-methyl}-ureido)-benzoic acid]: 130 °C. For `O=C(NCC(=O)N(Cc1nccs1)[C@@H]1c2ccccc2CC[C@H]1Cc1ccccc1)Nc1cccc(C(=O)O)c1` (relative stereo) [Example 17, trans-3-(3-{[(2-Benzyl-1,2,3,4-tetrahydro-naphthalen-1-yl)-thiazol-2-ylmethyl-carbamoyl]-methyl}-ureido)-benzoic acid], the melting point is 194 to 195 °C. As for `COc1ccccc1C[C@@H]1CCc2ccccc2[C@H]1N(Cc1ccccc1)C(=O)CNC(=O)Nc1cccc(C(=O)O)c1` (relative stereo) [Example 18, trans-3-[3-({Benzyl-[2-(2-methoxy-benzyl)-1,2,3,4-tetrahydro-naphthalen-1-yl]-carbamoyl}-methyl)-ureido]-benzoic acid], the figure is 130 °C; as for `O=C(O)c1cc(C(=O)NCC(=O)N(Cc2ccccc2)[C@@H]2CCCC[C@H]2Cc2ccccc2)ncn1` (relative stereo) [Example 20, trans-6-({[Benzyl-(2-benzyl-cyclohexyl)-carbamoyl]-methyl}-carbamoyl)-pyrimidine-4-carboxylic acid], 120 °C.

The record behind these values is US20030191279A1, “Urea derivatives useful as anticancer agents” (priority 1999, published 2003).
